For experiment [1], the system named is THP1. The experiment is described as follows: Cytotoxicity assay (MTT, 72 h) THP1. The conditions noted are these: Homo sapiens, THP-1, read-out: IC50 ± SD THP1. Format: cell-based.
The test system of experiment [2] is A2780. The experiment is described as follows: Cytotoxicity assay (SRB, 72 h) A2780. The experiment is classed as cell-based, Human. Conditions: Homo sapiens, A2780, read-out: IC50 ± SD A2780.

The term IC50 denotes the concentration needed to halve the response being measured.

As to `CC[C@@]1(O)C(=O)OCc2c1cc1n(c2=O)Cc2c-1nc1ccc(O)cc1c2C=NOCCCCCC(=O)NO` [Compound 3d, 6-(10-hydroxycamptothecin-7-ylmethyleneaminooxy)-hexanoic acid hydroxyamide], the IC50 was determined as 220 ± 90 nM in experiment [1] and 270 ± 80 nM in experiment [2].

The record behind these values is PMC6177136, “Hybrid topoisomerase I and HDAC inhibitors as dual action anticancer agents” (PLoS ONE, 2018).
